Results taken from patent US12459974B2, “Bicyclic peptide ligands specific for Nectin-4” (priority 2018, dated 2025).
*1 amine or outer side, *2 acyl side, *3 side chain or, on linkers, in order; H or OH if unused. Where a SMILES comes first, the peptide text is derived from it. Bridges are numbered along the chain shown (N, C = ends). Roman numbers before positions name the chains, in order. [ ]: non-standard residue; d: D form. The star is where a group is joined. ξ: configuration not given here. TATA = O=C(CC[*:1])N1CN(C(=O)CC[*:2])CN(C(=O)CC[*:3])C1; Dolaproine = CO[C@@H]([C@@H]1CCCN1)[C@@H](C)C(=O)O; X1 = CC[C@H](C)C(C(CC(=O)[*:2])OC)N(C)[*:1]; 1Nal = N[C@@H](Cc1cccc2ccccc12)C(=O)O; X3 = O=C(CCCC(=O)[*:2])NCCC(=O)[*:1]; PABC = O=C(OCc1ccc(N[*:1])cc1)[*:2]; Hyp = O=C(O)[C@@H]1C[C@@H](O)CN1; hArg = N=C(N)NCCCC[C@H](N)C(=O)O; Cit = NC(=O)NCCC[C@H](N)C(=O)O; X2 = CC(N*)[C@@H](O)c1ccccc1; ξNMeV = CNC(C(=O)O)C(C)C; ξV = CC(C)C(N)C(=O)O; Sar = CNCC(=O)O

Tests used:
[1] = test system: A549 xenograft; assay: Example 9.1: in vivo efficacy in A549 xenograft in Balb/c nude mice; set-up: species or system Mus Musculus; settings: for Tumor volume trace over time: iv; for T/C: day 14, treated group average tumor volume / control group; for Tumor volume: Mean ± SEM
[2] = test system: LU-01-0007 PDX; assay: Example 12: in vivo efficacy in LU-01-0007 PDX model of lung cancer; set-up: species or system Mus Musculus
Experimental: Animals were checked daily for any effects of tumor growth and treatments on normal behavior such as mobility, food and water consumption (by looking only), body weight gain/loss, eye/hair matting and any other abnormal effect as stated in the protocol. Death and observed clinical signs were recorded on the basis of the numbers of animals within each subset.

[3] = biological target: T1, human Nectin-4 (Homo sapiens, UniProt Q96NY8); assay: Nectin-4 Biacore SPR binding assay
T1 sequence (Q96NY8 32-349): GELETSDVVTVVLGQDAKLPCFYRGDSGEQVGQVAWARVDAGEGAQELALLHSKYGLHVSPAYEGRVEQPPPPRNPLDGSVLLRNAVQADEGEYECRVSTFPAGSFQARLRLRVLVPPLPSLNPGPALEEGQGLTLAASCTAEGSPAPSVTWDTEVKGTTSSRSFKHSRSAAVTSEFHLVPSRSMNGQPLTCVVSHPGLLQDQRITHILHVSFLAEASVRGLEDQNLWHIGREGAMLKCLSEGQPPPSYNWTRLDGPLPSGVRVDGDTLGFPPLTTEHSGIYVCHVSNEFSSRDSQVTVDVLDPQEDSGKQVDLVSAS
Experimental: Biacore experiments were performed to determine ka (M^−1 s^−1), kd (s^−1), KD (nM) values of monomeric peptides binding to human Necin-4 protein (obtained from Charles River).
Human Nectin-4 (residues Gly32-Ser349; NCBI RefSeq: NP_112178.2) with a gp67 signal sequence and C-terminal FLAG tag was cloned into pFastbac-1 and baculovirus made using standard Bac-to-Bac™ protocols (Life Technologies). Sf21 cells at 1×10^6 ml^−1 in Excell-420 medium (Sigma) at 27° C. were infected at an MOI of 2 with a P1 virus stock and the supernatant harvested at 72 hours. […] The protein was eluted with 100 μg/ml FLAG peptide. The eluted protein was concentrated to 2 ml and loaded onto an S-200 Superdex column (GE Healthcare) in PBS at 1 ml/min. 2 ml fractions were collected and the fractions containing Nectin-4 protein were concentrated to 16 mg/ml.
The protein was extensively desalted to remove uncoupled biotin using spin columns into PBS.
For analysis of peptide binding, a Biacore 3000 instrument was used utilising a CM5 chip (GE Healthcare). Streptavidin was immobilized on the chip using standard amine-coupling chemistry at 25° C. with HBS-N (10 mM HEPES, 0.15 M NaCl, pH 7.4) as the running buffer. Briefly, the carboxymethyl dextran surface was activated with a 7 minute injection of a 1:1 ratio of 0.4 M 1-ethyl-3-(3-dimethylaminopropyl) carbodiimide hydrochloride (EDC)/0.1 M N-hydroxy succinimide (NHS) at a flow rate of 10 μl/min. For capture of streptavidin, the protein was diluted to 0.2 mg/ml in 10 mM sodium acetate (pH 4.5) and captured by injecting 120 μl of streptavidin onto the activated chip surface. Residual activated groups were blocked with a 7 minute injection of 1 M ethanolamine (pH 8.5) and biotinylated Nectin-4 captured to a level of 1,200-1,800 RU. Buffer was changed to PBS/0.05% Tween 20 and a dilution series of the peptides was prepared in this buffer with a final DMSO concentration of 0.5%. The top peptide concentration was 100 nM with 6 further 2-fold dilutions. The SPR analysis was run at 25° C. at a flow rate of 50 μl/min with 60 seconds association and dissociation between 400 and 1,200 seconds depending upon the individual peptide. Data were corrected for DMSO excluded volume effects. All data were double-referenced for blank injections and reference surface using standard processing procedures and data processing and kinetic fitting were performed using Scrubber software, version 2.0c (BioLogic Software). Data were fitted using simple 1:1 binding model allowing for mass transport effects where appropriate.

[4] = test system: HT-1376 xenograft; assay: Example 9.3: in vivo efficacy in HT-1376 xenograft in CB17-SCID mice; set-up: species or system Mus Musculus; settings: for TGI / Tumor volume (TV) / Tumor volume / T/C: day 14; for Tumor volume trace over time: mean; for Tumor volume: mean ± SEM; for T/C: treated/control group average tumor volume
[5] = 3 mpk, biw, day 14 after the start of treatment
[6] = 3 mpk, qw, day 14 after the start of treatment
[7] = 5 mpk, qw, day 14 after the start of treatment

CC[C@H](C)C(C(CC(=O)N1CCC[C@H]1[C@H](OC)[C@@H](C)C(=O)NC(C)[C@@H](O)c1ccccc1)OC)N(C)C(=O)[C@@H](NC(=O)C(C(C)C)N(C)C(=O)OCc1ccc(NC(=O)[C@H](CCCNC(N)=O)NC(=O)C(NC(=O)CCCC(=O)NCCC(=O)N(C)CC(=O)N(C)CC(=O)N(C)CC(=O)N(C)CC(=O)N(C)CC(=O)N(C)CC(=O)N(C)CC(=O)N(C)CC(=O)N(C)CC(=O)N(C)CC(=O)N[C@H]2CSCCC(=O)N3CN4CN(C3)C(=O)CCSC[C@H](NC(=O)[C@@H](CC(=O)O)NC(=O)[C@H](Cc3cccc5ccccc35)NC(=O)[C@@H]3CCCN3C2=O)C(=O)N[C@@H](CCSC)C(=O)N[C@@H](CCCCNC(=N)N)C(=O)N[C@@H](CC(=O)O)C(=O)N[C@@H](Cc2c[nH]c3ccccc23)C(=O)N[C@@H](CO)C(=O)N[C@@H]([C@@H](C)O)C(=O)N2CCC[C@H]2C(=O)N2C[C@H](O)C[C@H]2C(=O)N[C@@H](Cc2c[nH]c3ccccc23)C(=O)N[C@H](C(N)=O)CSCCC4=O)C(C)C)cc1)C(C)C (stereo partly drawn) [BCY8245, MMAE-PABC-Cit-Val-Glutaryl-BCY8234] (I: [Sar][Sar][Sar][Sar][Sar][Sar][Sar][Sar][Sar][Sar]CP[1Nal][dD]CM[hArg]DWSTP[Hyp]WC-NH2 / II: [ξV][Cit][PABC][ξNMeV]V[X1][Dolaproine]-X2; linker I:11-I:15-I:25 via TATA; linker I:N-II:N via X3)
Tumor volume trace over time ([1]; 3 mpk, biw, day 12 after the start of treatment): 190 ± 15 | Tumor volume trace over time [1, 5]: 194 ± 27 | T/C ([1]; 3 mpk, biw): 34.2% | TGI [1, 5]: 90.8% | Tumor volume [1, 5]: 194 ± 27 mm^3 | Tumor volume trace over time ([1]; 3 mpk, qw, day 0 after the start of treatment, mean ± SEM): 157 ± 10 | Tumor volume trace over time ([1]; 3 mpk, qw, day 2 after the start of treatment): 208 ± 15 | Tumor volume trace over time ([1]; 3 mpk, qw, day 5 after the start of treatment): 197 ± 25 | Tumor volume trace over time ([1]; 3 mpk, qw, day 7 after the start of treatment): 257 ± 40 | Tumor volume trace over time ([1]; 3 mpk, qw, day 9 after the start of treatment): 293 ± 41 | Tumor volume trace over time ([1]; 3 mpk, qw, day 12 after the start of treatment): 341 ± 54 | Tumor volume trace over time [1, 6]: 356 ± 53 | T/C ([1]; 3 mpk, qw): 62.8% | TGI [1, 6]: 51.4% | Tumor volume [1, 6]: 356 ± 53 mm^3 | Tumor volume trace over time ([1]; 5 mpk, qw, day 0 after the start of treatment): 157 ± 14 | Tumor volume trace over time ([1]; 5 mpk, qw, day 2 after the start of treatment): 179 ± 22 | Tumor volume trace over time ([1]; 5 mpk, qw, day 5 after the start of treatment): 147 ± 10 | Tumor volume trace over time ([1]; 5 mpk, qw, day 7 after the start of treatment): 172 ± 23 | Tumor volume trace over time ([1]; 5 mpk, qw, day 9 after the start of treatment): 173 ± 24 | Tumor volume trace over time ([1]; 5 mpk, qw, day 12 after the start of treatment): 204 ± 36 | Tumor volume trace over time [1, 7]: 228 ± 33 | T/C ([1]; 5 mpk, qw): 40.2% | TGI [1, 7]: 82.6% | Tumor volume [1, 7]: 228 ± 33 mm^3 | bodyweight (in words) ([1]; all dose groups): maintained the bodyweight well | tumor response (in words) ([1]; mouse, in vivo): tumor growth is restrained by BCY8245 but the tumor does not undergo regression | efficacy (in words) ([2]; 1 mg/kg qw): stable disease | tumor regrowth (in words) ([2]; 3 mg/kg, after dosing ceased, out to 126 days post study start): no tumor regrowth | efficacy (in words) ([2]; 3 mg/kg, dosing maintained out to day 56): full regression | binding to human Nectin-4 in the SPR binding assay (in words) [3]: excellent binding | Kd ([3]; read-out: Human SPR Kd, bicyclic drug conjugates (Table 4)): 5.12 nM | TGI ([4]; 3 mg/kg biw): 72.3% | Tumor volume (TV) ([4]; 3 mg/kg biw): 407 mm^3 | TGI ([4]; 3 mg/kg qw): 50.9% | Tumor volume (TV) ([4]; 3 mg/kg qw): 603 mm^3 | TGI ([4]; 5 mg/kg qw): 66.0% | Tumor volume (TV) ([4]; 5 mg/kg qw): 465 mm^3 | Tumor volume trace over time ([4]; 3 mpk, biw, iv, day 0 after the start of treatment): 154 mm^3 | Tumor volume trace over time ([4]; 3 mpk, biw, iv, day 2 after the start of treatment): 248 mm^3 | Tumor volume trace over time ([4]; 3 mpk, biw, iv, day 5 after the start of treatment): 203 mm^3 | Tumor volume trace over time ([4]; 3 mpk, biw, iv, day 7 after the start of treatment): 273 mm^3 | Tumor volume trace over time ([4]; 3 mpk, biw, iv, day 9 after the start of treatment): 356 mm^3 | Tumor volume trace over time ([4]; 3 mpk, biw, iv, day 12 after the start of treatment): 391 mm^3 | TGI ([4]; 3 mpk, biw, iv): 72.3% | Tumor volume ([4]; 3 mpk, biw, iv): 407 ± 53 mm^3 | T/C ([4]; 3 mpk, biw, iv): 38.1% | Tumor volume trace over time ([4]; 3 mpk, biw, iv, day 14 after the start of treatment): 407 mm^3 | Tumor volume trace over time ([4]; 3 mpk, qw, iv, day 0 after the start of treatment): 153 mm^3 | Tumor volume trace over time ([4]; 3 mpk, qw, iv, day 2 after the start of treatment): 254 mm^3 | Tumor volume trace over time ([4]; 3 mpk, qw, iv, day 5 after the start of treatment): 298 mm^3 | Tumor volume trace over time ([4]; 3 mpk, qw, iv, day 7 after the start of treatment): 398 mm^3 | Tumor volume trace over time ([4]; 3 mpk, qw, iv, day 9 after the start of treatment): 468 mm^3 | Tumor volume trace over time ([4]; 3 mpk, qw, iv, day 12 after the start of treatment): 502 mm^3 | TGI ([4]; 3 mpk, qw, iv): 50.9% | Tumor volume ([4]; 3 mpk, qw, iv): 603 ± 76 mm^3 | T/C ([4]; 3 mpk, qw, iv): 56.4% | Tumor volume trace over time ([4]; 3 mpk, qw, iv, day 14 after the start of treatment): 603 mm^3 | Tumor volume trace over time ([4]; 5 mpk, qw, iv, day 0 after the start of treatment): 153 mm^3 | Tumor volume trace over time ([4]; 5 mpk, qw, iv, day 2 after the start of treatment): 237 mm^3 | Tumor volume trace over time ([4]; 5 mpk, qw, iv, day 5 after the start of treatment): 228 mm^3 | Tumor volume trace over time ([4]; 5 mpk, qw, iv, day 7 after the start of treatment): 317 mm^3 | Tumor volume trace over time ([4]; 5 mpk, qw, iv, day 9 after the start of treatment): 394 mm^3 | Tumor volume trace over time ([4]; 5 mpk, qw, iv, day 12 after the start of treatment): 438 mm^3 | TGI ([4]; 5 mpk, qw, iv): 66.0% | Tumor volume ([4]; 5 mpk, qw, iv): 465 ± 33 mm^3 | T/C ([4]; 5 mpk, qw, iv): 43.5% | Tumor volume trace over time ([4]; 5 mpk, qw, iv, day 14 after the start of treatment): 465 mm^3
